Measurements from publication PMC5809414, “Physician-initiated clinical study of limb ulcers treated with a functional peptide, SR-0379: from discovery to a randomized, double-blind, placebo-controlled trial” (NPJ Aging and Mechanisms of Disease, 2018).
Where “and” joins values, the source holds several entries; their conditions need not be identical. Equal entries are not always repeated. Where two headings read alike, the source gives them in different places. Where a SMILES comes first, the peptide text is derived from it. [ ]: non-standard residue; d: D form.

Experiments:
leg ulcers = experiment: Phase I/IIa randomized, double-blind, placebo-controlled study: wound size, closure, DESIGN-R, overall improvement; assay type: in vivo, human; conditions: for skin ulcer rate of reduction at the final evaluation (4th week or discontinuation): vs pre-treatment wound size, mean ± SD; for skin ulcer rate of reduction at the final evaluation (4th week or discontinuation) / Overall improvement, Mild: number of patients / Overall improvement, Moderate: number of patients / Overall improvement, No change: number of patients / Overall improvement, Worse: number of patients / Skin ulcer size, 2 weeks after treatment (mean ± SD) / Skin ulcer size, Post-treatment (mean ± SD) / Wound closure, Yes: number of patients (%) / DESIGN-R total score, Post-mean (SD) / Overall improvement, Significant: number of patients: n = 3; for DESIGN-R total score, Pre-mean (SD): n = 3, baseline; for DESIGN-R total score, Pre-mean (SD) / DESIGN-R total score, Post-mean (SD): depth excluded, 0 (healed) to 66; for Overall improvement, Significant: number of patients: evaluation by investigators
Protocol: GMP-grade SR-0379 peptide was generated by the American Peptide Company (Torrance, CA, USA). The peptide was dissolved in a physiological salt solution, and spray-type containers were charged with 10 mL of SR-0379 solution under GMP conditions by Nagase Medical Co. Ltd. (Itami, Hyogo, Japan). A total of 0.05 mL of SR-0379 solution was administered per spray using this container. According to the protocol, each patient received 0.25 mL of SR-0379 solution over five sprays once per day for 28 days.
The clinical trial was conducted as an investigator-initiated, phase I/IIa, randomized, double-blind, placebo-controlled trial at five hospitals (Osaka University Hospital, Osaka; Chiba University Hospital, Chiba; Asano-Kanamachi Clinic, Tokyo; Medical Plaza Shinozakieki Nishiguchi, Tokyo; and Kasukabe Chuo General Hospital, Saitama) in Japan. Twelve patients were randomized into four groups and treated with 0.02%, 0.1%, or 0.5% SR-0379 or placebo treatment. The inclusion criteria for this clinical trial were: (1) adult (age≧20 years), (2) a diagnosis of diabetic ulcer or limb ulcer (artery or venous ulcer); and (3) wound size <6 cm in diameter. Exclusion criteria is (1) infection to be cured with antibiotics, (2) deep ulcer with reaching bone tissue, (3) skin ulcer with malignant tumor, (4) severe edema around skin ulcer, (5) patients with malignant tumor, (6) patients with severe heart failure, (7) patients with severe liver, kidney, and blood dysfunction, (8) malnutrition (serum albumin ≦2 g/dL), (9) poor general condition due to severe systemic infection, (10) poor control of hyperglycemia (HbA1c ≧9.0%), (11) pregnant women, and men or women who disagreed to avoid pregnancy during clinical trial period, (12) patients who changed from an oral to an intravenous drug to regulate blood flow (i.e., prostaglandin E1, prostacyclin I2) from 2 weeks before SR-0379 or placebo treatment, (13) surgical procedure for skin ulcer from 2 weeks before SR-0379 or placebo treatment, (14) attendance to other clinical trial from 12 weeks before SR-0379 or placebo treatment, and (15) judgment as an inappropriate patient by principle investigator. The study protocol was approved by the institutional review board of each hospital. Patients gave written informed consent before enrollment.
Twelve patients were randomized into four groups and treated with 0.02%, 0.1,% or 0.5% SR-0379 or placebo treatment. The allocation was generated by a computer program before starting the initial enrollment, and the allocation coordinator concealed the allocation information until the last patient finished. The placebo drug was indistinguishable in terms of appearance. The trial drugs were distributed to each hospital according to the allocation schedule for each patient. All study personnel and patients were masked to treatment group allocation.
SR-0379 (0.02%, 0.1%, and 0.5%) or placebo was topically administered after cleaning with soap once per day for 28 days. After treatment, the wound was covered with a piece of gauze. […] No topical wound healing drugs were used in combination with SR-0379 or placebo for the same skin ulcer, and the topical use of FGF2 (trafermin) was prohibited starting 2 weeks before treatment through the final treatment.
Upon study entry, clinical assessments, skin ulcer evaluations, blood and urine tests, chest radiographs, and ECGs were performed 1 week before treatment. Prior to the first treatment, clinical assessments and skin ulcer evaluations were performed, and plasma SR-0379 levels were measured at 15 and 60 min after the first treatment. After treatment, clinical assessments, skin ulcer evaluation, blood and urine tests, and ECGs were performed, and plasma SR-0379 levels were measured at 15 and 60 min after the final treatment. During the follow-up period (1 week after treatment), patients received appropriate treatment, including FGF2 (trafermin). […]

infected wound = conditions: rat infected wound model, compared with FGF2; cited from earlier work
healthy men = tested on: healthy men; set-up: species or system human; conditions: in vivo
Protocol: A closed patch test was performed with SR-0379 at Shinanozaka Clinic (Shinjuku, Tokyo, Japan); the study protocol was approved by the Shinanozaka Clinic institutional review board. The registry number is UMIN000015391, and the URL is https://upload.umin.ac.jp/cgi-open-bin/ctr_e/ctr_view.cgi?recptno=R000017479. Sixty-six men were screened after obtaining informed consent, and a total of 20 healthy men were enrolled for the patch test after obtaining informed consent between October and November 2014. The inclusion criteria for healthy men were: (1) adult age (≧20 years and ≦40 years); (2) body mass index (≧18.5 and <25.0 kg/m^2); and (3) systolic blood pressure (SBP, ≦140 mmHg) and diastolic blood pressure (DBP, ≦90 mmHg); additionally, patients were to be within normal limits in an ECG test. The exclusion criteria were drug allergy or a history thereof, atopic dermatitis or allergic contact dermatitis, skin with dermatitis or inflammation, organ failure (heart, liver, kidney, blood), and others. The closed patch test was performed with a Finn chamber (7 mm) using filter paper containing 0.015 mL of SR-0379 solution (0%, 0.02%, 0.1%, 0.25%, or 0.5%). The allocation was generated by a coordinator and masked for the evaluator. […] Results were evaluated at 1 and 24 h after removal and graded according to the International Contact Dermatitis Research Group criteria (grades 1–6). […]

[1] = tested on: endothelial cell and fibroblast; conditions: in vitro; cited from earlier work
Source text: SR-0379 also promoted angiogenesis, granulation tissue formation, and endothelial cell and fibroblast proliferation in vitro. In this study, we conducted a multi-center, double-blinded, randomized phase I/IIa clinical study to evaluate the safety, efficacy, and pharmacokinetics of SR-0379 for the treatment of leg ulcers.

[2] = Safety evaluation (adverse events) in the clinical study; assay type: in vivo, human
Protocol: (§1) The primary outcome was the rate of wound size reduction at 4 weeks after the first treatment compared with pre-treatment wound size. Additionally, the following secondary endpoints were measured at 4 weeks after the first treatment and compared with pre-treatment status: time to wound closure; 50% wound size reduction ratio; quantification of Pseudomonas aeruginosa, Staphylococcus aureus, MRSA, and Streptococcus pyogenes; and overall evaluated ulcer improvement. Ulcer size was quantified based on skin ulcer pictures according to a defined procedure using ImageJ software and calculated as the percent change. We also used the DESIGN-R score index, which is calculated based on six components (exudate, size, infection/inflammation, granulation tissue, necrotic tissue, and pocket size), as a tool to score pressure ulcer severity.[23] Depth was excluded from the calculation. The total score was calculated by weighting the score of each item; a high score indicates greater severity. The safety of SR-0379 was evaluated during the treatment period (28 days) every 7 days and post-treatment (7 days) according to the Common Terminology Criteria for Adverse Events (version 4.0).

[3] = tested on: Pseudomonas aeruginosa, Staphylococcus aureus, MRSA, and Streptococcus pyogenes; experiment: Bacterial wound cultures (change pre to post); assay type: in vivo, human; conditions: n = 3
Protocol: as §1

venous leg ulcers = conditions: cited from earlier work
Source text: Recently, another anti-microbial peptide, LL-37, was similarly evaluated for venous leg ulcers.[26] The study design consisted of a 4-week randomized double-blind t ...

## CC[C@H](C)[C@H](NC(=O)[C@H](CC(C)C)NC(=O)[C@H](CCCCN)NC(=O)[C@H](CC(C)C)NC(=O)[C@@H](N)CCSC)C(=O)N[C@@H](Cc1ccccc1)C(=O)N[C@@H](CC(C)C)C(=O)N[C@@H](Cc1c[nH]cn1)C(=O)N[C@@H](CCCNC(=N)N)C(=O)N[C@@H](CC(C)C)C(=O)N[C@@H](CCCCN)C(=O)N[C@@H](CCCNC(=N)N)C(=O)N[C@@H](CCSC)C(=O)N[C@@H](CCCNC(=N)N)C(=O)N[C@@H](CCCCN)C(=O)N[C@@H](CCCNC(=N)N)C(=O)N[C@@H](CC(C)C)C(=O)N[C@H](CCCCN)C(=O)N[C@@H](CCCNC(=N)N)C(=O)N[C@@H](CCCCN)C(=O)O [SR-0379] (H-MLKLIFLHRLKRMRKRL[dK]RK-OH; N-terminus and C-terminus assumed)
Leg ulcers; 0.02% SR-0379, 2 weeks after treatment
  Size reduction (percent decrease) of skin ulcers, mean: -3.157%
Leg ulcers; 0.02% SR-0379, diabetic ulcer, foot (lateral malleolus), Werner Syndrome patient
  Size decrease, single patient: 61.45%
Leg ulcers; 0.02% SR-0379, diabetic ulcer, low leg
  Size decrease, single patient: 75.00%
Leg ulcers; 0.02% SR-0379, ischemic ulcer, finger
  Size decrease, single patient: -2.27%
Leg ulcers; 0.02% SR-0379 topical once per day for 28 days
  skin ulcer rate of reduction at the final evaluation (4th week or discontinuation): 44.73 ± 41.26% and 44.727%
Leg ulcers; 0.02% group
  Overall improvement, Mild: number of patients: 1
  Overall improvement, Moderate: number of patients: 1
  Overall improvement, No change: number of patients: 0
  Overall improvement, Worse: number of patients: 1
  Skin ulcer size, 2 weeks after treatment (mean ± SD): 0.777 ± 0.783
  Skin ulcer size, Post-treatment (mean ± SD): 0.563 ± 0.698
  Wound closure, Yes: number of patients (%): 0 (0%)
  DESIGN-R total score, Pre-mean (SD): 9.3 (4.7)
  DESIGN-R total score, Post-mean (SD): 4.3 (1.5)
  Overall improvement, Significant: number of patients: 1
Leg ulcers; 0.1% SR-0379, 2 weeks after treatment
  Size reduction (percent decrease) of skin ulcers, mean: 38.36%
Leg ulcers; 0.1% SR-0379, diabetic ulcer, foot (heel), Werner Syndrome patient
  Size decrease, single patient: 34.93%
Leg ulcers; 0.1% SR-0379, diabetic ulcer, foot, patient with skin abrasion
  Size decrease, single patient: 87.50%
Leg ulcers; 0.1% SR-0379, ischemic ulcer, finger
  Size decrease, single patient: 82.32%
Leg ulcers; 0.1% SR-0379 topical once per day for 28 days
  skin ulcer rate of reduction at the final evaluation (4th week or discontinuation): 68.25 ± 28.98% and 68.247%
Leg ulcers; 0.1% group
  Overall improvement, Mild: number of patients: 1
  Overall improvement, Moderate: number of patients: 1
  Overall improvement, No change: number of patients: 0
  Overall improvement, Worse: number of patients: 0
  Skin ulcer size, 2 weeks after treatment (mean ± SD): 0.320 ± 0.381
  Skin ulcer size, Post-treatment (mean ± SD): 0.473 ± 0.488
  Wound closure, Yes: number of patients (%): 0 (0%)
  DESIGN-R total score, Pre-mean (SD): 9.0 (1.0)
  DESIGN-R total score, Post-mean (SD): 5.3 (4.0)
  Overall improvement, Significant: number of patients: 1
Leg ulcers; 0.5% SR-0379, 2 weeks after treatment
  Size reduction (percent decrease) of skin ulcers, mean: 14.443%
Leg ulcers; 0.5% SR-0379, diabetic ulcer, foot, complete ulcer closure
  Size decrease, single patient: 100%
Leg ulcers; 0.5% SR-0379, venous ulcer, low leg
  Size decrease, single patient: 14.84%
Leg ulcers; 0.5% SR-0379 topical once per day for 28 days
  skin ulcer rate of reduction at the final evaluation (4th week or discontinuation): 71.61 ± 49.17% and 71.613%
Leg ulcers; 0.5% group
  Overall improvement, Mild: number of patients: 0
  Overall improvement, Moderate: number of patients: 3
  Overall improvement, No change: number of patients: 0
  Overall improvement, Worse: number of patients: 0
  Skin ulcer size, 2 weeks after treatment (mean ± SD): 1.910 ± 3.179
  Skin ulcer size, Post-treatment (mean ± SD): 1.760 ± 3.048
  DESIGN-R total score, Pre-mean (SD): 12.0 (7.2)
  DESIGN-R total score, Post-mean (SD): 5.3 (5.1)
  Overall improvement, Significant: number of patients: 0
Infected wound
  wound healing effect: higher than that of fibroblast growth factor 2 (FGF2)
Healthy men
  skin irritation index scores, assessment: within permitted levels for clinical usage
  vital signs and electrocardiogram (ECG): no abnormal findings
[1]
  angiogenesis, granulation tissue formation, and endothelial cell and fibroblast proliferation: promoted
[2]; 0.5% SR-0379, person, pneumonia
  Adverse event: Outcome: Death
[2]; human, in vivo
  Adverse event: Causality: No
  local adverse events such as itching, rash, or pain during treatment: no local adverse events
  relation of all adverse events to SR-0379 treatment: unrelated
[3]; 0.02% group
  Bacterial wound cultures, Decrease: number of patients: 2
  Bacterial wound cultures, Increase: number of patients: 1
  Bacterial wound cultures, No change: number of patients: 0
[3]; 0.1% group
  Bacterial wound cultures, Decrease: number of patients: 2
  Bacterial wound cultures, Increase: number of patients: 0
  Bacterial wound cultures, No change: number of patients: 1
[3]; 0.5% group
  Bacterial wound cultures, Decrease: number of patients: 1
  Bacterial wound cultures, Increase: number of patients: 0
  Bacterial wound cultures, No change: number of patients: 1

## LL-37
Venous leg ulcers; 0.5 mg/mL LL-37, 4-week treatment, p = 0.003 vs placebo
  healing rate constants: higher than those for placebo
Venous leg ulcers; 1.6 mg/mL LL-37, 4-week treatment, p = 0.088 vs placebo
  healing rate constants: higher than those for placebo
